Marks after values point to notes of the source that are not given here.

The nature of one data set: Measurement of LogP values by HPLC on reversed phase columns (EEC directive 79/831 Annex V.A8). In kind it is physicochemical.
Conditions: not given
The protocol: [table] If more than one Log P value is available within the same method, all the values are given and separated by “+”. Calibration was done with straight-chain alkan2-ones (with 3 to 16 carbon atoms) with known Log P values (measurement of Log P values using retention times with linear interpolation between successive alkanones). Lambda-max-values were determined using UV-spectra from 200 nm to 400 nm and the peak values of the chromatographic signals.
For the compound `O=C(Cn1cncn1)c1ncc(Oc2ccccc2)cc1Cl` [VII.07], the LogP was 2.45^[a]. Same read-out and setting: next, `O=C(Cn1cncn1)c1ccc(Oc2c(F)cc(Cl)cc2F)nc1C(F)(F)F` [VII.33]: 2.96^[a]; `O=C(CCl)c1ccc(Oc2ccc(Cl)cc2)nc1OC(F)(F)F` [VI.12]: 4.51^[a].

On to `OC(Cn1cncn1)c1ccc(Oc2ccccc2)nc1Cl` (racemic) [I.13], for which the LogP was 1.98^[a]. On the same count and under the same terms, the same measure for `FC(F)c1ccc(Oc2ccc(C3(C4CC4)CO3)c(C(F)(F)F)n2)cc1` (stereo not shown) [IX.05]: 4.49^[a]; for `CC(O)(Cn1cncn1)c1ccc(Oc2ccc(Cl)cc2)nc1OC(F)(F)F` (racemic) [I.33]: 3.29^[a]. Consider `CCC(=O)c1ccc(Oc2ccc(Cl)cc2)nc1C(F)(F)F` [V.45], for which the LogP was 4.20^[a]. Same read-out and setting: next, `CC(=O)c1ccc(Oc2ccc(Cl)cc2)nc1F` [V.24]: 3.51^[a]; `O=C(Cn1cncn1)c1ccc(Oc2ccc(Cl)cc2)nc1Cl` [VII.09]: 2.66^[a]; `OC(Cn1cncn1)c1cnc(Oc2ccc(S(F)(F)(F)(F)F)cc2)cc1C(F)(F)F` (single isomer, unassigned) [I.86]: 3.11^[a]. Same read-out and setting: next, `CC(=O)c1ncc(Oc2ccc(Cl)cc2)nc1Oc1ccc(Cl)cc1` [V.33]: 4.36^[a]; `O=C(Cn1cncn1)c1cnc(Oc2ccc(C(F)(F)F)cc2)cc1C(F)(F)F` [VII.28]: 3.17^[a]; `O=C(Cn1cncn1)c1ccc(Oc2cc(F)c(F)c(F)c2)nc1Cl` [VII.15]: 2.66^[a].

`CC(=O)c1ccc(Oc2ccc(Cl)cc2)nc1OC(F)(F)F` [V.06]: the LogP was 4.37^[a]. For `O=C(Cn1cncn1)c1cnc(Oc2ccc(OC(F)(F)F)cc2)cc1C(F)(F)F` [VII.26], the LogP is 3.27^[a].

Consider `COc1ccc(Oc2ccc(C(=O)CCl)c(Cl)n2)c(Cl)c1` [VI.13], for which the LogP was 3.71^[a].

Regarding `O=C(Cn1cncn1)c1ccc(Oc2ccc(F)cc2F)nc1Cl` [VII.13], the LogP was 2.41^[a]. With `OC(Cn1cncn1)c1ccc(Oc2ccc(Cl)cc2F)nc1C(F)(F)F` (stereo not shown) [I.70], the LogP is 2.78^[a]. Still for that read-out and setting: next, `O=C(Cn1cncn1)c1ccc(Oc2ccc(Cl)cc2F)nc1C(F)(F)F` [VII.37]: 2.74^[a].

Regarding `CC(O)(Cn1cncn1)c1ccc(Oc2ccc(Br)cc2)nc1C(F)(F)F` (single isomer, unassigned) [I.102], the LogP was 2.94^[a]. The same measure, in the same setting: the same measure for `O=C(CCl)c1ccc(Oc2ccccc2)nc1Cl` [VI.03]: 3.23^[a]. Turning to `CC(O)(Cn1cncn1)c1ccc(Oc2ccc(Cl)cc2F)nc1C(F)(F)F` (stereo not shown) [I.66], the LogP was 2.80^[a]. The same measure, in the same setting: the same measure for `COc1ccc(Oc2ccc(C(C)(O)Cn3cncn3)c(Cl)n2)c(Cl)c1` (racemic) [I.31]: 2.56^[a]. The same measure, in the same setting: the same measure for `CC(O)c1ccc(Oc2ccc(C(O)Cn3cncn3)c(Cl)n2)cc1` (mixture of isomers) [I.24]: 1.48^[a]; for `CC(O)(Cn1cncn1)c1ccc(Oc2ccc(Br)cc2)nc1C(F)(F)F` (racemic) [I.59]: 2.94^[a]. For `O=C(Cn1cncn1)c1ccc(Oc2ccc(Cl)cc2Cl)nc1Cl` [VII.16], the LogP is 3.02^[a]. Same read-out and setting: the same measure for `CC(O)(Cn1cncn1)c1cnc(Oc2ccc(C(F)(F)F)cc2)cc1Cl` (stereo not shown) [I.78]: 2.88^[a]. Same read-out and setting: the same measure for `O=C(CBr)c1cnc(Oc2ccc(Cl)cc2F)cc1C(F)(F)F` [VI.24]: 4.34^[a]; for `OC(Cn1cncn1)(c1ccc(Oc2ccc(C(F)F)cc2)nc1C(F)(F)F)C1CC1` (stereo not shown) [I.93]: 3.13^[a]; for `O=C(CCl)c1cnc(Oc2ccc(Br)cc2)cc1C(F)(F)F` [VI.23]: 4.16^[a]. On the same count and under the same terms, the same measure for `OC(Cn1cncn1)c1cnc(Oc2ccc(Br)cc2)cc1C(F)F` (stereo not shown) [I.63]: 2.59^[a]; for `OC(Cn1cncn1)c1ccc(Oc2ccc(S(F)(F)(F)(F)F)cc2)nc1Cl` (racemic) [I.34]: 2.90^[a]; for `FC(F)(F)c1ccc(Oc2ccc(C3(C4CC4)CO3)c(C(F)(F)F)n2)cc1` (stereo not shown) [IX.11]: 5.00^[a]. For the compound `O=C(Cn1cncn1)c1cnc(Oc2ccc(S(F)(F)(F)(F)F)cc2)cc1C(F)(F)F` [VII.21], the LogP is 3.35^[a].

On to `O=C(Cn1cncn1)c1ccc(Oc2ccc(OC(F)(F)F)cc2)nc1Cl` [VII.08], for which the LogP is 2.95^[a]. Same read-out and setting: next, `OC(Cn1cncn1)c1cnc(Oc2ccc(C(F)F)cc2)cc1C(F)(F)F` (stereo not shown) [I.55]: 2.55^[a]; `O=C(Cn1cncn1)c1cnc(Oc2ccc(Cl)cc2F)cc1C(F)(F)F` [VII.30]: 3.06^[a]; `O=Cc1ccc(Oc2ccc(C(=O)C3CC3)c(C(F)(F)F)n2)cc1` [V.42]: 3.21^[a]. Same read-out and setting: the same measure for `O=C(Cn1cncn1)c1ccc(Oc2ccc(Br)cc2)nc1C(F)(F)F` [VII.24]: 2.99^[a]; for `O=C(Cn1cncn1)c1ccc(Oc2ccc(C(F)(F)F)cc2)nc1C(F)(F)F` [VII.32]: 3.04^[a]. Turning to `O=C(CBr)c1cnc(Oc2ccc(Br)cc2)cc1C(F)(F)F` [VI.15], the LogP is 4.34^[a]. As for `O=C(CCl)c1ccc(Oc2ccc(S(F)(F)(F)(F)F)cc2)nc1C(F)(F)F` [VI.29], the LogP was 4.29^[a]. On the same count and under the same terms, the same measure for `O=C(CBr)c1cnc(Oc2ccc(Cl)cc2)cc1C(F)(F)F` [VI.14]: 4.29^[a]. Take `CC(=O)c1cnc(Oc2ccc(C(F)F)cc2)cc1C(F)(F)F` [V.04]: the LogP was 3.62^[a]. Same read-out and setting: the same measure for `O=C(Cn1cncn1)c1cnc(Oc2ccc(Cl)cc2)cc1Cl` [VII.38]: 2.60^[a]; for `CC(=O)c1ccc(Oc2ccc(S(F)(F)(F)(F)F)cc2)nc1Cl` [V.30]: 3.99^[a]; for `CC(O)(Cn1cncn1)c1cnc(Oc2ccc(Br)cc2)cc1C(F)(F)F` (stereo not shown) [I.49]: 2.96^[a]. Same read-out and setting: the same measure for `CC(O)(Cn1cncn1)c1cnc(Oc2ccc(S(F)(F)(F)(F)F)cc2)cc1C(F)(F)F` (stereo not shown) [I.37]: 3.33^[a]; for `O=C(Cn1cncn1)c1cnc(Oc2ccc(Cl)cc2)cc1C(F)F` [VII.36]: 2.51^[a]. Still for that read-out and setting: the same measure for `CC(O)(Cn1cncn1)c1ccc(Oc2ccc(Cl)cc2F)nc1C(F)(F)F` (stereo not shown) [I.89]: 3.15^[a]. As to `O=C(Cn1cncn1)c1ncc(Oc2ccc(Cl)cc2)nc1Cl` [VII.23], the LogP was 2.54^[a].

`O=C(Cn1cncn1)c1ccc(Oc2ccc(Cl)cc2)nc1OC(F)(F)F` [VII.18]: the LogP is 3.23^[a]. On the same count and under the same terms, next, `CC(=O)c1ccc(Oc2ccc(S(F)(F)(F)(F)F)cc2)nc1C(F)(F)F` [V.16]: 4.09^[a]; `OC(Cn1cncn1)c1cnc(Oc2ccc(Cl)cc2)cc1Cl` (stereo not shown) [I.68]: 2.48^[a]. The same measure, in the same setting: the same measure for `O=C(CCl)c1ccc(Oc2c(F)cc(Cl)cc2F)nc1C(F)(F)F` [VI.31]: 4.26^[a]. Still for that read-out and setting: the same measure for `O=C(CCl)c1ccc(Oc2ccc(Cl)cc2F)nc1C(F)(F)F` [VI.35]: 4.11^[a]; for `OC(Cn1cncn1)c1ccc(Oc2ccc(Cl)cc2)nc1F` (stereo not shown) [I.41]: 2.23^[a]. For `CC(O)(Cn1cncn1)c1cnc(Oc2ccc(C(F)(F)F)cc2)cc1C(F)(F)F` (stereo not shown) [I.50], the LogP is 3.11^[a]. Still for that read-out and setting: the same measure for `CCC(O)(Cn1cncn1)c1cnc(Oc2ccc(C(F)(F)F)cc2)cc1C(F)(F)F` (stereo not shown) [I.76]: 3.52^[a]; for `OC(Cn1cncn1)c1ccc(Oc2ccc(Cl)cc2Cl)nc1Cl` (racemic) [I.23]: 2.75^[a]. The same measure, in the same setting: next, `CC(=O)c1ncc(Oc2ccc(Cl)cc2)nc1Cl` [V.23]: 3.51^[a]; `O=C(Cn1cncn1)c1ccc(Oc2ccccc2F)nc1Cl` [VII.14]: 2.28^[a]. On the same count and under the same terms, the same measure for `CC(O)(Cn1cncn1)c1ccc(Oc2ccc(Cl)cc2)nc1C(F)(F)F` (stereo not shown) [I.67]: 2.68^[a]; for `O=C(CCl)c1ccc(Oc2ccc(Cl)cc2)nc1C(F)F` [VI.11]: 3.62^[a]. Regarding `OC(Cn1cncn1)c1ccc(Oc2ccc(OC(F)(F)F)cc2)nc1C(F)(F)F` (stereo not shown) [I.79], the LogP was 2.89^[a]. For `OC(Cn1cncn1)(c1ccc(Oc2ccc(Br)cc2)nc1C(F)(F)F)C1CC1` (racemic) [I.81], the LogP is 3.70^[a]. The same measure, in the same setting: the same measure for `OC(Cn1cncn1)c1ccc(Oc2ccc(C(F)(F)F)cc2)nc1C(F)(F)F` (stereo not shown) [I.61]: 2.84^[a]. In the case of `O=C(Cn1cncn1)c1cnc(Oc2ccc(Br)cc2)cc1C(F)F` [VII.41], the LogP is 2.61^[a]. Same read-out and setting: the same measure for `CC(=O)c1ccc(Oc2ccc(C(F)(F)F)cc2)nc1C(F)(F)F` [V.17]: 3.96^[a]; for `CC(O)(Cn1cncn1)c1cnc(Oc2ccc(Cl)cc2F)cc1C(F)(F)F` (stereo not shown) [I.58]: 3.02^[a]. On the same count and under the same terms, next, `OC(Cn1cncn1)(c1ccc(Oc2ccc(S(F)(F)(F)(F)F)cc2)nc1C(F)(F)F)C1CC1` (stereo not shown) [I.97]: 3.80^[a]; `O=C(CCl)c1ccc(Oc2ccc(Br)cc2)nc1C(F)(F)F` [VI.19]: 4.11^[a]. Consider `CC1(c2ccc(Oc3ccc(Cl)cc3)nc2C(F)(F)F)CO1` (stereo not shown) [IX.06], for which the LogP is 4.44^[a]. On the same count and under the same terms, the same measure for `OC(Cn1cncn1)c1ccc(Oc2ccc(Br)cc2)nc1C(F)F` (stereo not shown) [I.73]: 2.50^[a]; for `O=C(CBr)c1cnc(Oc2ccc(C(F)F)cc2)cc1C(F)(F)F` [VI.27]: 3.99^[a]; for `O=C(Cn1cncn1)c1ccc(Oc2ccc(F)cc2)nc1Cl` [VII.12]: 2.30^[a]. The same measure, in the same setting: the same measure for `O=C(Cn1cncn1)c1ccc(Oc2ccc(Cl)cc2)nc1F` [VII.25]: 2.50^[a]; for `O=C(Cn1cncn1)c1ccc(Oc2ccc(S(F)(F)(F)(F)F)cc2)nc1C(F)(F)F` [VII.31]: 3.23^[a].

Staying with this data set, now noted: reversed phase HPLC column, method [a]: LC-UV, acidic range, 0.1% formic acid in water and acetonitrile as eluent.
What is called chromatographic logP is a lipophilicity value derived from retention on a column. Read a high chromatographic logP as a more lipophilic compound. Consider `CC(=O)c1cnc(Oc2ccc(Cl)cc2)cc1C(F)(F)F` [V.02, 1-[6-(4-chlorophenoxy)-4-(trifluoromethyl)-3-pyridyl]ethanone], for which the chromatographic logP was found to be 3.89.

Source of the values: patent US10485236B2, “Triazole derivatives, intermediates thereof and their use as fungicides” (Bayer CropScience Aktiengesellschaft, priority 2015, dated 2019).
